Consider 12 compounds from US20120309750A1, “5-MEMBERED HETEROCYCLE DERIVATIVES AND MANUFACTURING PROCESS THEREOF” (ILDONG PHARM CO., LTD., priority 2010, published 2012).

For orientation: IC50 means the midpoint of a concentration-inhibition curve. Lower therefore signals greater potency.

Some results are limits rather than exact numbers.

Assay [1] concerns the target yeast HSP90 (Saccharomyces cerevisiae, UniProt P02829). The experiment in a line: Hsp90 ATPase assay (malachite green). It counts as biochemical. The protocol:
(§1) For present invention, the ATPase activity of yeast HSP90 was measured using malachite green assay. Formula I compounds for primary antitumoral activity were treated in human colorectal cancer cells (HCT116) showing increased expression levels of HSP90 client protein and cotoxicity IC50 values was measured as a result.

In assay [2] the test system is human colorectal cancer cells (HCT116). Nature of the assay: Growth inhibition assay (cytotoxicity) in HCT116. It counts as cell-based. The conditions noted are these: HCT-116. How it is done:
as §1

Sequence of yeast HSP90 (P02829 whole entry): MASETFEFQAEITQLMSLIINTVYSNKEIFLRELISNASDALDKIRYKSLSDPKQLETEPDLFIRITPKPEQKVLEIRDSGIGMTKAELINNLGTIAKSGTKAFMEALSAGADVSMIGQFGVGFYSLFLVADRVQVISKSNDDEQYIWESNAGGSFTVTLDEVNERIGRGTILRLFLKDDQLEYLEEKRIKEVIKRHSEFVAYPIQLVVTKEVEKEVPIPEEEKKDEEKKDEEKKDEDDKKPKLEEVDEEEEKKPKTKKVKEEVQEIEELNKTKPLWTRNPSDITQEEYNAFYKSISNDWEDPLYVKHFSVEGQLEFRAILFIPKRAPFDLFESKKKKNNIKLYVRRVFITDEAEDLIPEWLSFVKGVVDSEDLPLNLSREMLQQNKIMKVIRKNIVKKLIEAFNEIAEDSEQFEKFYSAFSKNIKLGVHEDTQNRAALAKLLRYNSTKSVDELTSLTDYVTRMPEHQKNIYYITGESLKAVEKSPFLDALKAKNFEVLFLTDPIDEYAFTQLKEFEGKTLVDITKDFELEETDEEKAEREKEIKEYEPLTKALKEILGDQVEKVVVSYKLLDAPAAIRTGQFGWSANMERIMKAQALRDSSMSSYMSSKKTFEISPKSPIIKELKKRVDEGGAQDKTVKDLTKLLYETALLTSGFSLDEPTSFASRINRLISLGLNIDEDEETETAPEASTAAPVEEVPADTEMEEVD

As to `CCNC(=O)c1noc(-c2cc(C(C)C)c(O)cc2O)c1-c1noc(C(O)CCl)n1` (stereo not drawn) [Compound I-91, 4-(5-(2-Chloro-1-hydroxyethyl)-1,2,4-oxadiazol-3-yl)-5-(2,4-dihydroxy-5-isopropylphenyl)-N-ethylisoxazole-3-carboxamide], the values for the IC50 in assay [1] and in assay [2] were 500 to 1000 nM and under 500 nM, respectively.
On to `CCNC(=O)c1noc(-c2cc(C(C)C)c(O)cc2O)c1-c1noc(CN2CCOCC2)n1` [Compound I-92, 5-(2,4-Dihydroxy-5-isopropylphenyl)-N-ethyl-4-(5-(morpholinomethyl)-1,2,4-oxadiazol-3-yl)isoxazole-3-carboxamide], for which the IC50 in assay [1] was 500 to 1000 nM; in assay [2], under 500 nM.
`CCNC(=O)c1noc(-c2cc(C(C)C)c(O)cc2O)c1-c1noc(CN(C)C)n1` [Compound I-93, 5-(2,4-Dihydroxy-5-isopropylphenyl)-4-(5-((dimethylamino)methyl)-1,2,4-oxadiazol-3-yl)-N-ethylisoxazole-3-carboxamide]: the half-inhibitory concentration (IC50) was 500 to 1000 nM in assay [1] and under 500 nM in assay [2].
Consider `CCNC(=O)c1noc(-c2cc(C(C)C)c(O)cc2O)c1-c1noc(CN2CCCCC2)n1` [Compound I-94, 5-(2,4-Dihydroxy-5-isopropylphenyl)-N-ethyl-4-(5-(piperidin-1-ylmethyl)-1,2,4-oxadiazol-3-yl)isoxazole-3-carboxamide], for which the half-inhibitory concentration (IC50) in assay [1] and in assay [2] was under 500 nM in each case.
Consider `CCNC(=O)c1noc(-c2cc(C(C)C)c(O)cc2O)c1-c1noc(CN2CCCC2)n1` [Compound I-95, 5-(2,4-Dihydroxy-5-isopropylphenyl)-N-ethyl-4-(5-(pyrrolidin-1-ylmethyl)-1,2,4-oxadiazol-3-yl)isoxazole-3-carboxamide], for which the IC50 in assay [1] is 500 to 1000 nM; in assay [2], under 500 nM.
As to `CCNC(=O)c1noc(-c2cc(C(C)C)c(O)cc2O)c1-c1cc[nH]n1` [Compound I-96, 5-(2,4-Dihydroxy-5-isopropylphenyl)-N-ethyl-4-(1H-pyrazol-3-yl)isoxazole-3-carboxamide], the values for the concentration for half-maximal inhibition (IC50) in assay [1] and in assay [2] were 500 to 1000 nM and under 500 nM, respectively.
With `CCNC(=O)c1noc(-c2cc(C(C)C)c(O)cc2O)c1-c1ccn(C)n1` [Compound I-97, 5-(2,4-Dihydroxy-5-isopropylphenyl)-N-ethyl-4-(1-methyl-1H-pyrazol-3-yl)isoxazole-3-carboxamide], the results for the IC50 in assay [1] and in assay [2] were 500 to 1000 nM and under 500 nM, respectively.
On to `CCNC(=O)c1noc(-c2cc(C(C)C)c(O)cc2O)c1-c1ccnn1C` [Compound I-98, 5-(2,4-Dihydroxy-5-isopropylphenyl)-N-ethyl-4-(1-methyl-1H-pyrazol-5-yl)isoxazole-3-carboxamide], for which the IC50 in assay [1] and in assay [2] was under 500 nM each time.
For `CCNC(=O)c1noc(-c2cc(C(C)C)c(O)cc2O)c1-c1ccn(CC)n1` [Compound I-99, 5-(2,4-Dihydroxy-5-isopropylphenyl)-N-ethyl-4-(1-ethyl-1H-pyrazol-3-yl)isoxazole-3-carboxamide], the values for the 50% inhibitory concentration (IC50) in assay [1] and in assay [2] were 500 to 1000 nM and under 500 nM, respectively.
`CCNC(=O)c1noc(-c2cc(C(C)C)c(O)cc2O)c1-c1ccn(C(C)C)n1` [Compound I-100, 5-(2,4-Dihydroxy-5-isopropylphenyl)-N-ethyl-4-(1-isopropyl-1H-pyrazol-3-yl)isoxazole-3-carboxamide]: the concentration for half-maximal inhibition (IC50) is 500 to 1000 nM in assay [1] and under 500 nM in assay [2].
For the compound `CCCn1ccc(-c2c(C(=O)NCC)noc2-c2cc(C(C)C)c(O)cc2O)n1` [Compound I-101, 5-(2,4-Dihydroxy-5-isopropylphenyl)-N-ethyl-4-(1-propyl-1H-pyrazol-3-yl)isoxazole-3-carboxamide], the concentration for half-maximal inhibition (IC50) was 500 to 1000 nM in assay [1] and under 500 nM in assay [2].
The matching figures for `CCNC(=O)c1noc(-c2cc(C(C)C)c(O)cc2O)c1-c1cnn(C)c1` [Compound I-102, 5-(2,4-Dihydroxy-5-isopropylphenyl)-N-ethyl-4-(1-methyl-1H-pyrazol-4-yl)isoxazole-3-carboxamide]: under 500 nM and under 500 nM.
